For the assay, the system named is fleas (C. felis). The experiment in a line: Third evaluation, speed-of-kill of topical spot-on against fleas on cats. It is filed as in vivo. On the set-up: flea reduction 12 hours after additional infestation: concentration or dose not given beside the values. As to the method: Third evaluation of spinetoram as a topical spot-on for control of cat flea infestations. A study was conducted to evaluate the speed-of-kill efficacy of spinetoram applied topically for the control of fleas (C. felis) on cats. Thirty-six cats were evenly allocated into six groups. One group was a no treatment and no vehicle group. On study days −8 and −1, each cat was infested with approximately 100 newly emerged, unfed adult fleas (C. felis), with an approximate split of 50/50 male to female flea. The topical solution used was spinetoram, on a pure basis, 39.6% w/w (210 mg spinetoram/0.5 ml dose), with benzyl alcohol and butylated hydroxytoluene. The treated groups were dosed once on Study Day 0 by application at the base of the skull at skin level, and flea counts were conducted as follows: […]

Take Spinetoram: where the note is “28 days after treatment”, the “flea reduction 1 hour after additional infestation” value is on record as 80.7%, the “flea reduction 4 hours after additional infestation” value was found to be 91.6%, the “flea reduction 8 hours after additional infestation” value stood at 98.5% and the “flea reduction 12 hours after additional infestation” value is listed as 100%. Moreover, the “flea reduction 24 hours after additional infestation” value (28 days after treatment) is listed as 100%. Besides, where the note is “cats, 210 mg/0.5 ml dose, 4 hours”, the “reduction in live flea numbers, four hours after treatment” value is on record as 63.2%. Also, the “efficacy level, eight hours post-dosing” value (cats, 210 mg/0.5 ml dose, 8 hours) is on record as 94.6%. For the same substance, the “efficacy, twelve hour time point” value (cats, 210 mg/0.5 ml dose, 12 hours) is given as 98.6%. Moreover, the “efficacy, twenty-four hour time point” value (cats, 210 mg/0.5 ml dose, 24 hours) stood at 100%. Moreover, under “seven days after treatment”, the “flea reduction 4 hours after additional infestation” value stood at 100%, the “flea reduction 8 hours after additional infestation” value is recorded as 100%, the “flea reduction 12 hours after additional infestation” value stood at 100% and the “flea reduction 24 hours after additional infestation” value is 100%. Further, the “fleas killed within one hour of an additional infestation” value (seven days after treatment, 1 hour) is on record as “over 90%”.

These data come from patent publication US20150045313A1, “Ectoparasiticidal Methods and Formulations” (Eli Lilly and Company, priority 2009, published 2015).
